Source: paper PMC12595617, “Investigating the potential role of metabolic resistance genes in conferring cross-resistance to pyrethroids and polycyclic aromatic hydrocarbon pollutants in the major malaria vector Anopheles coluzzii” (BMC Genomics, 2025)
Values joined by “and” are separate entries in the source; they are usually repeats but may differ in a detail not shown here. Equal entries are not always repeated. Where two headings read alike, the source gives them in different places. Values belong to the compound of their own block, whether it stands above or below them.

Experiments:
[1] = test system: Auyo microsomes; test: Microsomal P450 activity with model probe substrate DEF, Auyo; assay type: biochemical, Anopheles coluzzii; conditions: 10 µM DEF, 0.05 µM P450, read for 15 min
Description: (§1) P450 activity was determined in the prepared microsomes from both Auyo and Ngousso strains using diethoxyfluorescein (DEF) as the model fluorogenic substrate using the methods earlier described. Briefly, the enzyme-buffer mix consisted of 0.05 µM of cytochrome P450 (microsomes), 50 mM potassium phosphate buffer, pH 7.4, 0.5 µM cytochrome b5 and 10 µM DEF. To initiate the reactions in a 96-well plates (Thermo Labsystems, Basingstoke, UK), a NADPH ([…]) regeneration mix (consisting of 1mM glucose-6-phosphate, 0.1 M NADP+, 0.25mM magnesium chloride, IU/ml glucose-6-phosphate dehydrogenase and 50 mM potassium phosphate buffer pH 7.4) was added in the positive replicates whereas the same buffer with no NADPH was added in the negative wells. Using the excitation (482 nm) and emission (520 nm) wavelengths of DEF, the […] was read for 15 min, and the relative fluorescence unit per min per picomole of the P450 (RFU/min/pmol of P450) was determined.

[2] = test system: Ngousso microsomes; test: Microsomal P450 activity with model probe substrate DEF, Ngousso; assay type: biochemical, Anopheles coluzzii; conditions: 10 µM DEF, 0.05 µM P450, read for 15 min
Description: as §1

[3] = test system: microsomes prepared from pyrethroid-resistant Anopheles coluzzii (Auyo); conditions: Auyo (field-resistant) larval microsomes, 0.05 µM P450, 20 µM PAH, 2 h, 30 °C, +NADPH vs -NADPH, mean ± SD of three replicates
Description: To compare the metabolic activity of the microsomes and the recombinant cytochrome P450s towards PAH metabolism assays were conducted side by side as described earlier. The NADPH regeneration mixture (consisting of 0.1 M NADP+, 50mM potassium phosphate buffer, pH 7.4, 1 mM glucose-6-phosphate, 0.25 mM magnesium chloride and 1U/ml glucose-6-phosphate dehydrogenase) was used in the positive replicates. For the negatives, the same buffer with no added NADP + was used. Enzyme-buffer mix comprised of 0.05 µM recombinant P450 or microsome, 0.4 µM cytochrome b5, 50 mM potassium phosphate buffer pH 7.4 and 20 µM of the PAH substrates. To initiate the reactions, regeneration mixture was added to the enzyme-buffer mix in a 1:1 ratio (total of 200 µl) following activation for 5 min at 30 °C and 1200 rpm shaking. The reaction was run for 2 h at 30 °C with 200 rpm shaking. To stop the reaction, 200 µl of ice-cold High Performance Liquid Chromatography (HPLC) grade acetonitrile was added, followed by additional shaking for 5 min to precipitate the proteins. The mixture was kept on ice for 10 min before centrifuging at 16,000xg for 20 min. […]
(§2) Using the Agilent HPLC 1200 infinity series, analysis of the PAHs metabolism was conducted. The HPLC conditions consisted of mobile phases of HPLC grade acetonitrile and water in the ratio of 80/20 and detected at a wavelength of 254 nm.

[4] = test system: recombinant CYP6P3; conditions: recombinant CYP6P3, 0.05 µM P450, 20 µM PAH, 2 h, 30 °C, +NADPH vs -NADPH
Description: (§3) The recombinant P450s used in this study were acquired from the enzyme characterization group (ECG) leader, Dr. Mark J.I. Paine of the Vector Biology Department, Liverpool School of Tropical Medicine. All the P450s were expressed from field-resistant populations of An. gambiae except for CYP6P9a, which was expressed from An. funestus. The heterologous expression of the P450s was conducted according to the previously described approaches. Briefly, P450s were expressed by using ompA and pelB signal sequences to direct P450 and An. gambiae CPR (AgCPR), respectively, to the inner membrane of E. coli a functional monooxygenase. The P450 sequences were amplified from cDNA and fused to the ompA signal peptides in simple PCR reactions. This is followed by ligation of the digested fragments into linearized expression vector pCWori+, thereby creating a construct pB13:ompA + 2-P450. Competent JM109 cells were co-transformed with plasmids pB13:ompA + 2-P450 and pACYC-AgCPR for the expression of functional P450 and An. gambiae CPR, respectively. Colonies carrying the two plasmids as confirmed by the colony PCR are used for a 12–14 h starter culture overnight. Typically, 0.2 L cultures were supplemented with 2 mL from the starter cultures and incubated at 37 °C and 200 rpm shaking while the absorbance at 600 nm was being monitored. When the OD reached 0.6–0.8, the cultures were cooled down to 25 °C for 30 min with shaking at 150 rpm. Induction with 1 mM isopropyl β-D-1-thiogalactopyranoside (IPTG) and 0.5 mM 5-aminolaevulinic acid (ALA) was conducted. Determinations of the P450 content and CPR activity were conducted using the procedure of [61] and [60], respectively.
(§4) To compare the metabolic activity of the microsomes and the recombinant cytochrome P450s towards PAH metabolism assays were conducted side by side as described earlier. The NADPH regeneration mixture (consisting of 0.1 M NADP+, 50mM potassium phosphate buffer, pH 7.4, 1 mM glucose-6-phosphate, 0.25 mM magnesium chloride and 1U/ml glucose-6-phosphate dehydrogenase) was used in the positive replicates. For the negatives, the same buffer with no added NADP + was used. Enzyme-buffer mix comprised of 0.05 µM recombinant P450 or microsome, 0.4 µM cytochrome b5, 50 mM potassium phosphate buffer pH 7.4 and 20 µM of the PAH substrates. To initiate the reactions, regeneration mixture was added to the enzyme-buffer mix in a 1:1 ratio (total of 200 µl) following activation for 5 min at 30 °C and 1200 rpm shaking. The reaction was run for 2 h at 30 °C with 200 rpm shaking. To stop the reaction, 200 µl of ice-cold High Performance Liquid Chromatography (HPLC) grade acetonitrile was added, followed by additional shaking for 5 min to precipitate the proteins. The mixture was kept on ice for 10 min before centrifuging at 16,000xg for 20 min. The supernatants were filtered through 0.45 μm PTFE filters (ThermoFisher Scientific, MA, USA) and filtrate transferred to HPLC vials for onward analysis.
as §2

[5] = test system: recombinant CYP6Z2
Description: as §3, §4, §2

[6] = test system: recombinant CYP6Z3
Description: as §3, §4, §2

[7] = test system: CYP9K1; assay type: in vitro ADME, An. gambiae; conditions: Anopheles gambiae, 2 h, 20 µM, pH 7.4
Description: (§5) To compare the metabolic activity of the microsomes and the recombinant cytochrome P450s towards PAH metabolism assays were conducted side by side as described earlier [38, 43]. The NADPH regeneration mixture (consisting of 0.1 M NADP+, 50mM potassium phosphate buffer, pH 7.4, 1 mM glucose-6-phosphate, 0.25 mM magnesium chloride and 1U/ml glucose-6-phosphate dehydrogenase) was used in the positive replicates. For the negatives, the same buffer with no added NADP + was used. Enzyme-buffer mix comprised of 0.05 µM recombinant P450 or microsome, 0.4 µM cytochrome b5, 50 mM potassium phosphate buffer pH 7.4 and 20 µM of the PAH substrates. To initiate the reactions, regeneration mixture was added to the enzyme-buffer mix in a 1:1 ratio (total of 200 µl) following activation for 5 min at 30 °C and 1200 rpm shaking. The reaction was run for 2 h at 30 °C with 200 rpm shaking. […]
(§6) Using the Agilent HPLC 1200 infinity series, analysis of the PAHs metabolism was conducted. The HPLC conditions consisted of mobile phases of HPLC grade acetonitrile and water in the ratio of 80/20 and detected at a wavelength of 254 nm. […] Percentage depletions for each compound were calculated in both the microsomal and recombinant P450 studies. […]

[8] = test system: CYP9J5; assay type: in vitro ADME, An. gambiae; conditions: Anopheles gambiae, 2 h, 20 µM, pH 7.4
Description: as §5, §6

[9] = test system: Auyo microsomes; test: Fluorene turnover assay using microsomes; assay type: in vitro ADME, Anopheles coluzzii; conditions: fluorene 30 µM, run time 15-150 min
Description: Because of the higher percentage of depletion observed in the Auyo microsomal metabolism of fluorene, it was chosen to be analysed further for its turnover and kinetic studies. To understand the turnover rates of the fluorene depletions, reaction run time was varied between 15 and 150 min. Specific points used were 15, 30, 45, 60, 90, 120 and 150 min while the fluorene concentration was maintained at 30 µM in all these time points.

[10] = test system: CYP6P4; assay type: in vitro ADME, An. gambiae; conditions: Anopheles gambiae, 2 h, 20 µM, pH 7.4
Description: as §5, §6

[11] = test system: Auyo microsomal P450; test: in vitro; assay type: in vitro ADME, Anopheles coluzzii
Description: For the determination of steady-state kinetic parameters, assays were conducted for 30 min with 0.05 µM microsomal P450 while varying the concentrations of fluorene (0–600 µM). Kinetics plot of velocity against the substrate concentrations was made using the least squares non-linear regression in GraphPad Prism 6.03 Software (GraphPad Inc., La Jolla, CA, USA) that fits into the canonical Michaelis-Menten model as previously described for pyrethroid insecticides.

[12] = test system: all the recombinant P450s used in this study (CYPs 6M2, 6Z2, 6Z3, 9J5, 6P3, 6P4, 6P5, CYP9K1, CYP6P9a); test: In vitro metabolism of PAHs with the whole recombinant P450 panel; assay type: in vitro ADME, An. gambiae / An. funestus; conditions: Anopheles gambiae; Anopheles funestus (CYP6P9a), 2 h, 20 µM, pH 7.4
Description: as §5, §6

Structure (SMILES): CCOc1ccc2c(c1)Oc1cc(OCC)ccc1C21OC(=O)c2ccccc21 [DEF, diethoxyfluorescein]
DEF activity [1]: 4.9 RFU/min/pmole P450
DEF activity [2]: 4.4 RFU/min/pmole P450

Structure (SMILES): c1ccc2c(c1)-c1cccc3cccc-2c13 [fluoranthene]
percentage depletion [3]: 22.8 ± 5.2%
percentage depletion [4]: more than 40%
metabolic activity (in words) ([5]; recombinant CYP6Z2): strong metabolic activity
metabolic activity (in words) ([6]; recombinant CYP6Z3): strong metabolic activity

percentage depletion [7]: 8.5%
percentage depletion [8]: 7.7%
metabolic activity (in words) [5]: strong metabolic activity
metabolic activity (in words) [6]: strong metabolic activity
percentage depletion [10]: 9.3%
Km at 30 min ([11]; Anopheles coluzzii): 58.7 µM
Structure (SMILES): c1ccc2c(c1)Cc1ccccc1-2 [fluorene]
Turnover [9]: 37.016 min⁻¹ and 37.02 min⁻¹
Catalytic rate (Kcat) ([11]; Auyo microsomes, 0.05 µM microsomal P450, 30 min, fluorene 0–600 µM): 0.06993 s⁻¹ and 0.07 ± 0.00733 s⁻¹
catalytic efficiency ([11]; Auyo microsomes, fluorene): 0.0715 ± 0.026 min⁻¹ µM⁻¹

percentage depletion [12]: < 10%
Structure (SMILES): c1ccc2ccccc2c1 [naphthalene]
